Test results from paper PMC9519446, “Discovery of an Orally Active Benzoxaborole Prodrug Effective in the Treatment of Chagas Disease in Non-human Primates” (Nature microbiology, 2022).
Where “and” joins values, the source holds several entries; their conditions need not be identical. Equal values may be shown once.

Assay: NHP health screening: serum chemistry
Assay type: in vivo, rhesus macaques (Macaca mulatta)
[1] = End of study bleed, Mean of treated F animals
[2] = End of study bleed, individual treated animals
[3] = Mid-dosing bleed, Mean of treated females
[4] = Mid-dosing bleed, treated animals, individual values

Protocol: Under light-anesthesia/sedation, peripheral blood samples were collected from each animal prior to treatment and at 7 time points following. Blood analysis (CBC and serum chemistry assays) and physical exams to evaluate the health of the study animals were performed on each animal prior to the beginning of the study and also at three time points during the treatment protocol (see Supplementary data).

## Cc1c(C(=O)N[C@H](C(=O)OCC2CCOCC2)C(C)C)ccc2c1B(O)OC2 [AN15368]
[1]
  Agap: 15 Meq/L
  Alb: 3.916 G/Dl
  Alp: 92.2632 Iu/L
  Alt: 53.7368 Iu/L
  Ast: 63.5789 Iu/L
  Bun: 17.7895 Mg/Dl
  Ca: 9.232 Mg/Dl
  Chol: 138.105 mg/dL
  Ck: 2260.42 Iu/L
  Cl: 109.526 Meq/L
  Crea: 0.7289 Mg/Dl
  Fe: 111.895 µg/dL
  Ggt: 45 Iu/L
  Glob: 2.684 G/Dl
  Gluc: 62.2105 Mg/Dl
  K: 3.584 Meq/L
  Ldh: 581.684 Iu/L
  Na: 147.474 Meq/L
  Osmo: 284.105 Mosm/Kg
  Phos: 3.284 Mg/Dl
  Tbil: 0.2074 Mg/Dl
  Tco2: 26.6842 Meq/L
  Tibc: 363.263 µg/dL
  Tp: 6.589 G/Dl
  Trig: 78.7895 Mg/Dl
[2]
  Agap: 18 Meq/L and 14 Meq/L and 15 Meq/L and 13 Meq/L and 17 Meq/L and 16 Meq/L
  Alb: 4.2 G/Dl and 3.6 G/Dl and 3.9 G/Dl and 3.5 G/Dl and 4 G/Dl and 3.3 G/Dl and 2.9 G/Dl and 4.4 G/Dl and 3.8 G/Dl and 4.7 G/Dl and 4.3 G/Dl
  Alp: 132 Iu/L and 94 Iu/L and 68 Iu/L and 54 Iu/L and 70 Iu/L and 117 Iu/L and 84 Iu/L and 65 Iu/L and 131 Iu/L and 60 Iu/L and 92 Iu/L and 150 Iu/L and 113 Iu/L and 97 Iu/L and 63 Iu/L and 80 Iu/L and 71 Iu/L and 89 Iu/L and 76 Iu/L
  Alt: 39 Iu/L and 36 Iu/L and 27 Iu/L and 30 Iu/L and 87 Iu/L and 53 Iu/L and 95 Iu/L and 29 Iu/L and 76 Iu/L and 195 Iu/L and 45 Iu/L and 25 Iu/L and 70 Iu/L and 69 Iu/L and 18 Iu/L and 22 Iu/L
  Ast: 34 Iu/L and 33 Iu/L and 18 Iu/L and 23 Iu/L and 28 Iu/L and 35 Iu/L and 32 Iu/L and 29 Iu/L and 21 Iu/L and 199 Iu/L and 392 Iu/L and 24 Iu/L and 25 Iu/L and 203 Iu/L and 16 Iu/L
  Bun: 19 Mg/Dl and 14 Mg/Dl and 15 Mg/Dl and 17 Mg/Dl and 18 Mg/Dl and 16 Mg/Dl and 13 Mg/Dl and 38 Mg/Dl and 29 Mg/Dl and 11 Mg/Dl
  Ca: 9.6 Mg/Dl and 9.1 Mg/Dl and 8.7 Mg/Dl and 9.3 Mg/Dl and 9.5 Mg/Dl and 9.2 Mg/Dl and 8.8 Mg/Dl and 8.5 Mg/Dl and 8.2 Mg/Dl and 9.7 Mg/Dl and 9.4 Mg/Dl and 10.1 Mg/Dl
  Chol: 127 mg/dL and 152 mg/dL and 153 mg/dL and 132 mg/dL and 115 mg/dL and 168 mg/dL and 197 mg/dL and 162 mg/dL and 129 mg/dL and 141 mg/dL and 101 mg/dL and 85 mg/dL and 158 mg/dL and 126 mg/dL and 118 mg/dL and 151 mg/dL and 136 mg/dL and 110 mg/dL
  Ck: 224 Iu/L and 407 Iu/L and 173 Iu/L and 274 Iu/L and 432 Iu/L and 485 Iu/L and 1737 Iu/L and 198 Iu/L and 506 Iu/L and 146 Iu/L and 14833 Iu/L and 15016 Iu/L and 403 Iu/L and 468 Iu/L and 205 Iu/L and 374 Iu/L and 6914 Iu/L and 290 Iu/L and 124 Iu/L and 171 Iu/L
  Cl: 111 Meq/L and 110 Meq/L and 109 Meq/L and 107 Meq/L and 104 Meq/L and 108 Meq/L and 112 Meq/L
  Crea: 0.7 Mg/Dl and 0.59 Mg/Dl and 0.62 Mg/Dl and 0.68 Mg/Dl and 0.76 Mg/Dl and 0.63 Mg/Dl and 0.77 Mg/Dl and 0.78 Mg/Dl and 0.71 Mg/Dl and 0.75 Mg/Dl and 1.07 Mg/Dl and 0.83 Mg/Dl and 0.58 Mg/Dl and 0.57 Mg/Dl and 0.74 Mg/Dl and 0.85 Mg/Dl and 0.66 Mg/Dl
  Fe: 161 µg/dL and 147 µg/dL and 112 µg/dL and 151 µg/dL and 121 µg/dL and 108 µg/dL and 127 µg/dL and 95 µg/dL and 137 µg/dL and 110 µg/dL and 23 µg/dL and 34 µg/dL and 87 µg/dL and 133 µg/dL and 143 µg/dL and 32 µg/dL and 183 µg/dL and 103 µg/dL and 93 µg/dL
  Ggt: 49 Iu/L and 44 Iu/L and 32 Iu/L and 38 Iu/L and 45 Iu/L and 53 Iu/L and 43 Iu/L and 48 Iu/L and 60 Iu/L and 51 Iu/L and 47 Iu/L and 30 Iu/L and 41 Iu/L and 67 Iu/L
  Glob: 2.4 G/Dl and 3.1 G/Dl and 2.5 G/Dl and 2.6 G/Dl and 2.8 G/Dl and 2.9 G/Dl and 2.7 G/Dl and 3.3 G/Dl and 3.2 G/Dl and 2.3 G/Dl and 2.2 G/Dl
  Gluc: 77 Mg/Dl and 54 Mg/Dl and 69 Mg/Dl and 48 Mg/Dl and 57 Mg/Dl and 50 Mg/Dl and 62 Mg/Dl and 56 Mg/Dl and 65 Mg/Dl and 75 Mg/Dl and 83 Mg/Dl and 64 Mg/Dl and 58 Mg/Dl and 73 Mg/Dl and 55 Mg/Dl and 63 Mg/Dl
  K: 3.5 Meq/L and 4 Meq/L and 3.4 Meq/L and 3.3 Meq/L and 3.6 Meq/L and 3.7 Meq/L and 3.9 Meq/L and 2.9 Meq/L and 3.8 Meq/L and 4.1 Meq/L
  Ldh: 508 Iu/L and 636 Iu/L and 140 Iu/L and 492 Iu/L and 348 Iu/L and 387 Iu/L and 493 Iu/L and 399 Iu/L and 281 Iu/L and 157 Iu/L and 1914 Iu/L and 2200 Iu/L and 274 Iu/L and 247 Iu/L and 194 Iu/L and 1688 Iu/L and 241 Iu/L and 292 Iu/L and 122 Iu/L
  Na: 148 Meq/L and 145 Meq/L and 149 Meq/L and 146 Meq/L and 147 Meq/L
  Osmo: 286 Mosm/Kg and 278 Mosm/Kg and 284 Mosm/Kg and 285 Mosm/Kg and 280 Mosm/Kg and 291 Mosm/Kg and 283 Mosm/Kg and 282 Mosm/Kg
  Phos: 3.1 Mg/Dl and 3.5 Mg/Dl and 3.7 Mg/Dl and 2.5 Mg/Dl and 4.3 Mg/Dl and 4.5 Mg/Dl and 4.2 Mg/Dl and 3 Mg/Dl and 2.4 Mg/Dl and 2.3 Mg/Dl and 3.4 Mg/Dl and 3.2 Mg/Dl and 2.7 Mg/Dl and 3.3 Mg/Dl and 4.8 Mg/Dl and 4 Mg/Dl
  Tbil: 0.17 Mg/Dl and 0.1 Mg/Dl and 0.12 Mg/Dl and 0.16 Mg/Dl and 0.45 Mg/Dl and 0.41 Mg/Dl and 0.15 Mg/Dl and 0.14 Mg/Dl and 0.84 Mg/Dl and 0.19 Mg/Dl
  Tco2: 23 Meq/L and 25 Meq/L and 26 Meq/L and 27 Meq/L and 30 Meq/L and 31 Meq/L and 28 Meq/L and 29 Meq/L and 24 Meq/L
  Tibc: 337 µg/dL and 401 µg/dL and 353 µg/dL and 346 µg/dL and 309 µg/dL and 409 µg/dL and 351 µg/dL and 396 µg/dL and 388 µg/dL and 371 µg/dL and 299 µg/dL and 267 µg/dL and 357 µg/dL and 410 µg/dL and 392 µg/dL and 358 µg/dL and 376 µg/dL and 424 µg/dL and 347 µg/dL and 320 µg/dL
  Tp: 6.5 G/Dl and 6.7 G/Dl and 6.4 G/Dl and 6.8 G/Dl and 6.3 G/Dl and 6.9 G/Dl and 6.6 G/Dl and 6 G/Dl and 6.1 G/Dl and 6.2 G/Dl
  Trig: 66 Mg/Dl and 105 Mg/Dl and 88 Mg/Dl and 84 Mg/Dl and 101 Mg/Dl and 120 Mg/Dl and 124 Mg/Dl and 77 Mg/Dl and 61 Mg/Dl and 137 Mg/Dl and 20 Mg/Dl and 24 Mg/Dl and 50 Mg/Dl and 111 Mg/Dl and 31 Mg/Dl and 141 Mg/Dl and 27 Mg/Dl
[3]
  Agap: 15.1667 Meq/L
  Alb: 3.839 G/Dl
  Alp: 98.7222 Iu/L
  Alt: 44.8889 Iu/L
  Ast: 27.4444 Iu/L
  Bun: 14.2778 Mg/Dl
  Ca: 9.439 Mg/Dl
  Chol: 138.5 mg/dL
  Ck: 456.778 Iu/L
  Cl: 110.167 Meq/L
  Crea: 0.7289 Mg/Dl
  Fe: 141.278 µg/dL
  Ggt: 49.6667 Iu/L
  Glob: 3.072 G/Dl
  Gluc: 63.0556 Mg/Dl
  K: 3.633 Meq/L
  Ldh: 249.389 Iu/L
  Na: 148.5 Meq/L
  Osmo: 284.778 Mosm/Kg
  Phos: 2.8 Mg/Dl
  Tbil: 0.1683 Mg/Dl
  Tco2: 26.8889 Meq/L
  Tibc: 368.167 µg/dL
  Tp: 6.906 G/Dl
  Trig: 81.6111 Mg/Dl
[4]
  Agap: 16 Meq/L and 17 Meq/L and 13 Meq/L and 15 Meq/L and 14 Meq/L
  Alb: 3.9 G/Dl and 3.6 G/Dl and 3.8 G/Dl and 3.4 G/Dl and 3.5 G/Dl and 4.3 G/Dl and 4.1 G/Dl and 3.7 G/Dl and 4 G/Dl
  Alp: 114 Iu/L and 109 Iu/L and 79 Iu/L and 146 Iu/L and 91 Iu/L and 93 Iu/L and 84 Iu/L and 108 Iu/L and 131 Iu/L and 72 Iu/L and 88 Iu/L and 136 Iu/L and 116 Iu/L and 65 Iu/L and 75 Iu/L and 90 Iu/L
  Alt: 46 Iu/L and 63 Iu/L and 42 Iu/L and 89 Iu/L and 50 Iu/L and 33 Iu/L and 67 Iu/L and 24 Iu/L and 27 Iu/L and 69 Iu/L and 29 Iu/L and 22 Iu/L and 35 Iu/L and 40 Iu/L and 55 Iu/L and 44 Iu/L and 56 Iu/L
  Ast: 40 Iu/L and 24 Iu/L and 28 Iu/L and 29 Iu/L and 25 Iu/L and 26 Iu/L and 33 Iu/L and 34 Iu/L and 20 Iu/L and 27 Iu/L and 15 Iu/L and 30 Iu/L and 23 Iu/L
  Bun: 15 Mg/Dl and 16 Mg/Dl and 13 Mg/Dl and 12 Mg/Dl and 14 Mg/Dl and 11 Mg/Dl and 20 Mg/Dl
  Ca: 9.7 Mg/Dl and 9.6 Mg/Dl and 9.1 Mg/Dl and 9.3 Mg/Dl and 9 Mg/Dl and 9.2 Mg/Dl and 10 Mg/Dl and 9.8 Mg/Dl and 9.5 Mg/Dl
  Chol: 180 mg/dL and 175 mg/dL and 134 mg/dL and 115 mg/dL and 124 mg/dL and 127 mg/dL and 158 mg/dL and 141 mg/dL and 125 mg/dL and 122 mg/dL and 138 mg/dL and 154 mg/dL and 140 mg/dL and 113 mg/dL and 133 mg/dL and 148 mg/dL and 151 mg/dL and 119 mg/dL
  Ck: 427 Iu/L and 338 Iu/L and 199 Iu/L and 479 Iu/L and 314 Iu/L and 233 Iu/L and 738 Iu/L and 1619 Iu/L and 353 Iu/L and 416 Iu/L and 382 Iu/L and 210 Iu/L and 648 Iu/L and 548 Iu/L and 237 Iu/L and 332 Iu/L and 197 Iu/L and 552 Iu/L and 206 Iu/L
  Cl: 110 Meq/L and 109 Meq/L and 111 Meq/L and 108 Meq/L and 107 Meq/L and 113 Meq/L and 112 Meq/L
  Crea: 0.56 Mg/Dl and 0.91 Mg/Dl and 0.71 Mg/Dl and 0.69 Mg/Dl and 0.85 Mg/Dl and 0.97 Mg/Dl and 0.62 Mg/Dl and 0.77 Mg/Dl and 0.78 Mg/Dl and 0.74 Mg/Dl and 0.76 Mg/Dl and 0.58 Mg/Dl and 0.65 Mg/Dl and 0.64 Mg/Dl and 0.68 Mg/Dl
  Fe: 185 µg/dL and 145 µg/dL and 129 µg/dL and 168 µg/dL and 126 µg/dL and 124 µg/dL and 150 µg/dL and 181 µg/dL and 159 µg/dL and 113 µg/dL and 170 µg/dL and 84 µg/dL and 111 µg/dL and 169 µg/dL and 125 µg/dL and 154 µg/dL and 155 µg/dL
  Ggt: 46 Iu/L and 64 Iu/L and 42 Iu/L and 53 Iu/L and 58 Iu/L and 67 Iu/L and 48 Iu/L and 30 Iu/L and 52 Iu/L and 31 Iu/L and 40 Iu/L and 35 Iu/L and 82 Iu/L and 37 Iu/L and 50 Iu/L and 65 Iu/L
